Measurements published in patent US7157432B2, “Tetraphenylbacteriochlorin derivatives and compositions containing the same” (San-Ei Gen F.F.I., Inc., priority 2000, dated 2007).

Columns and labels:
[1] = UV absorption in DMSO at 20° C.; assay type: physicochemical; conditions: FIG. 1
Excerpt: As clearly shown in FIG. 1, the compounds of the present invention have a strong UV absorption peak around 740 nm. Compounds 3 to 8 and 11 to 16 show an UV absorption pattern similar to that of tetraphenylbacteriochlorin and also have a strong UV absorption peak around 740 nm.

[2] = test system: HeLa cells; experiment: Phototoxicity test (MTT assay, viability of HeLa cells after irradiation); assay type: cell-based; conditions: test compound 5 or 10 μM for two hours, 500 W halogen lamp with filter cutting off light shorter than 500 nm for 8 minutes, MTT after 24 hours
Procedure: Each of Compounds 1 to 16 was evaluated about its cytotoxicity by viability of HeLa cells using MTT assay (Carmichal, J., W. G. DeGraff, A. F. Gazdar, J. D. Minna and J. B. Mitchell, Cancer Res., 1987, 47, 936–942). HeLa cells (1×10^4 cells/well) were incubated in Dulbecco's modified Eagle's medium (DMEM) containing 10% fetal bovine serum (FBS) on a 96-well plate in 5% CO2 at 37° C. for 24 hours. After washing with phosphate buffered saline (PBS), the cells were incubated in DMEM without serum in the presence of each of the compounds to be tested (5 or 10 μM) for two hours. The cells were washed with PBS and irradiated with a 500 W halogen lamp equipped with a filter cutting off the light shorter than 500 nm wave length for 8 minutes. After 24 hours' incubation, the viability was measured by the MTT assay. HeLa cells without test compound were used as a control. […] The survival ratio of the cells is calculated by the following formula: Cell survival ratio (%)=(OD540 in presence of test compound with irradiation/OD540 in presence of test compound without irradiation)×100. A cell survival ratio of 100% means the absence of cytotoxicity.

Row | Compound | strong UV absorption peak [1] | cytotoxicity when irradiated with light (cell survival ratio, FIG. 2) [2]
1 | OC[C@H]1O[C@@H](Oc2ccc(-c3c4nc(c(-c5ccc(O[C@@H]6O[C@H](CO)[C@@H](O)[C@H](O)[C@H]6O)cc5)c5ccc([nH]5)c(-c5ccc(O[C@@H]6O[C@H](CO)[C@@H](O)[C@H](O)[C@H]6O)cc5)c5nc(c(-c6ccc(O[C@@H]7O[C@H](CO)[C@@H](O)[C@H](O)[C@H]7O)cc6)c6ccc3[nH]6)CC5)CC4)cc2)[C@H](O)[C@@H](O)[C@@H]1O [Compound 9, 5,10,15,20-tetrakis[4-(β-D-glucopyranosyloxy)phenyl]-bacteriochlorin] | around 740 nm | –
2 | O[C@@H]1[C@@H](O)[C@H](Oc2cccc(-c3c4nc(c(-c5cccc(O[C@@H]6OC[C@@H](O)[C@H](O)[C@H]6O)c5)c5ccc([nH]5)c(-c5cccc(O[C@@H]6OC[C@@H](O)[C@H](O)[C@H]6O)c5)c5nc(c(-c6cccc(O[C@@H]7OC[C@@H](O)[C@H](O)[C@H]7O)c6)c6ccc3[nH]6)CC5)CC4)c2)OC[C@H]1O [Compound 16, 5,10,15,20-tetrakis[3-(β-D-xylopyranosyloxy)phenyl]bacteriochlorin] | – | exhibited cytotoxicity
3 | CC(=O)OC[C@H]1O[C@@H](Oc2cccc(-c3c4nc(c(-c5cccc(O[C@@H]6O[C@H](COC(C)=O)[C@@H](OC(C)=O)[C@H](OC(C)=O)[C@H]6OC(C)=O)c5)c5ccc([nH]5)c(-c5cccc(O[C@@H]6O[C@H](COC(C)=O)[C@@H](OC(C)=O)[C@H](OC(C)=O)[C@H]6OC(C)=O)c5)c5nc(c(-c6cccc(O[C@@H]7O[C@H](COC(C)=O)[C@@H](OC(C)=O)[C@H](OC(C)=O)[C@H]7OC(C)=O)c6)c6ccc3[nH]6)CC5)CC4)c2)[C@H](OC(C)=O)[C@@H](OC(C)=O)[C@@H]1OC(C)=O [Compound 2, 5,10,15,20-tetrakis[3-(2′,3′,4′,6′-tetra-O-acetyl-β-D-glucopyranosyloxy)phenyl]bacteriochlorin] | around 740 nm | –
4 | O[C@@H]1[C@H](Oc2cccc(-c3c4nc(c(-c5cccc(O[C@@H]6OC[C@@H](O)[C@@H](O)[C@@H]6O)c5)c5ccc([nH]5)c(-c5cccc(O[C@@H]6OC[C@@H](O)[C@@H](O)[C@@H]6O)c5)c5nc(c(-c6cccc(O[C@@H]7OC[C@@H](O)[C@@H](O)[C@@H]7O)c6)c6ccc3[nH]6)CC5)CC4)c2)OC[C@@H](O)[C@H]1O [Compound 14, 5,10,15,20-tetrakis[3-(β-D-arabinopyranosyloxy)phenyl]-bacteriochlorin] | – | exhibited cytotoxicity
5 | CC(=O)OC[C@H]1O[C@@H](Oc2ccc(-c3c4nc(c(-c5ccc(O[C@@H]6O[C@H](COC(C)=O)[C@@H](OC(C)=O)[C@H](OC(C)=O)[C@H]6OC(C)=O)cc5)c5ccc([nH]5)c(-c5ccc(O[C@@H]6O[C@H](COC(C)=O)[C@@H](OC(C)=O)[C@H](OC(C)=O)[C@H]6OC(C)=O)cc5)c5nc(c(-c6ccc(O[C@@H]7O[C@H](COC(C)=O)[C@@H](OC(C)=O)[C@H](OC(C)=O)[C@H]7OC(C)=O)cc6)c6ccc3[nH]6)CC5)CC4)cc2)[C@H](OC(C)=O)[C@@H](OC(C)=O)[C@@H]1OC(C)=O [Compound 1, 5,10,15,20-tetrakis[4-(2′,3′,4′,6′-tetra-O-acetyl-β-D-glucopyranosyloxy)phenyl]bacteriochlorin] | around 740 nm | –
6 | OC[C@H]1O[C@@H](Oc2cccc(-c3c4nc(c(-c5cccc(O[C@@H]6O[C@H](CO)[C@@H](O)[C@H](O)[C@H]6O)c5)c5ccc([nH]5)c(-c5cccc(O[C@@H]6O[C@H](CO)[C@@H](O)[C@H](O)[C@H]6O)c5)c5nc(c(-c6cccc(O[C@@H]7O[C@H](CO)[C@@H](O)[C@H](O)[C@H]7O)c6)c6ccc3[nH]6)CC5)CC4)c2)[C@H](O)[C@@H](O)[C@@H]1O [Compound 10, 5,10,15,20-tetrakis[3-(β-D-glucopyranosyloxy)phenyl]-bacteriochlorin] | around 740 nm | exhibited cytotoxicity
